Data published in the CheMixHub viscosity set.

Assay: xn = mol fraction of the nth substance listed

CCc1ccccc1 + CCCCCC
viscosity [mPa·s], 101 kPa
Conditions | x2 = 0.14 | x2 = 0.247 | x2 = 0.337 | x2 = 0.486 | x2 = 0.641 | x2 = 0.731
298.15 K | 0.56 | 0.51 | 0.47 | 0.416 | – | 0.339
308.15 K | 0.499 | 0.454 | 0.421 | 0.371 | 0.326 | 0.302
323.15 K | 0.426 | 0.39 | 0.363 | 0.321 | 0.283 | 0.263

Clc1ccccc1 + CN1CCCC1=O
viscosity [mPa·s], 101 kPa
Conditions | x2 = 0.1055 | x2 = 0.2097 | x2 = 0.3127 | x2 = 0.4144 | x2 = 0.5149 | x2 = 0.6142 | x2 = 0.7124 | x2 = 0.8094 | x2 = 0.9052
303.15 K | 0.8395 | 0.9497 | 1.057 | 1.153 | 1.242 | 1.322 | 1.39 | 1.455 | 1.508
308.15 K | 0.7814 | 0.8809 | 0.9724 | 1.059 | 1.14 | 1.207 | 1.267 | 1.323 | 1.366
313.15 K | 0.737 | 0.8284 | 0.9144 | 0.9933 | 1.067 | 1.132 | 1.187 | 1.24 | 1.282
318.15 K | 0.6786 | 0.7611 | 0.8372 | 0.9111 | 0.9802 | 1.04 | 1.093 | 1.137 | 1.175

Clc1ccccc1 + C=C(C)C(=O)OC
303.15 K, 101 kPa
Conditions | viscosity [mPa·s]
x2 = 0.099 | 0.6943
x2 = 0.1971 | 0.6738
x2 = 0.3987 | 0.6345
x2 = 0.4982 | 0.6147
x2 = 0.6984 | 0.5743
x2 = 0.7989 | 0.5538
x2 = 0.8987 | 0.5349

CCCC(C)C + COC(C)(C)C
298.15 K, 101.33 kPa
Conditions | viscosity [mPa·s]
x2 = 0.0969 | 0.2794
x2 = 0.2016 | 0.2825
x2 = 0.3021 | 0.2858
x2 = 0.4006 | 0.2902
x2 = 0.5007 | 0.2956
x2 = 0.5985 | 0.3014
x2 = 0.6965 | 0.3079
x2 = 0.7978 | 0.3154
x2 = 0.8845 | 0.3228

C=CC(=O)OCC + C1CCOC1
viscosity [mPa·s], 101 kPa
Conditions | 293.15 K | 298.15 K | 303.15 K | 308.15 K | 313.15 K | 318.15 K
x2 = 0.0825 | 0.5547 | 0.5211 | 0.4896 | 0.4554 | 0.4158 | 0.3758
x2 = 0.167 | 0.5422 | 0.5102 | 0.4802 | 0.4474 | 0.4096 | 0.3711
x2 = 0.2302 | 0.5338 | 0.503 | 0.4739 | 0.4421 | 0.4055 | 0.3682
x2 = 0.316 | 0.5237 | 0.4945 | 0.4666 | 0.436 | 0.401 | 0.3651
x2 = 0.3892 | 0.5163 | 0.4883 | 0.4613 | 0.4317 | 0.3978 | 0.3631
x2 = 0.4603 | 0.5102 | 0.4832 | 0.457 | 0.4283 | 0.3954 | 0.3617
x2 = 0.5286 | 0.5051 | 0.4791 | 0.4535 | 0.4256 | 0.3938 | 0.361
x2 = 0.5947 | 0.5011 | 0.4759 | 0.4509 | 0.4236 | 0.3926 | 0.3607
x2 = 0.6605 | 0.4979 | 0.4734 | 0.4489 | 0.4222 | 0.392 | 0.3609
x2 = 0.7283 | 0.4954 | 0.4716 | 0.4475 | 0.4213 | 0.3919 | 0.3615
x2 = 0.7874 | 0.4938 | 0.4707 | 0.4468 | 0.421 | 0.3922 | 0.3624
x2 = 0.8689 | 0.4927 | 0.4702 | 0.4466 | 0.4212 | 0.3931 | 0.3642
x2 = 0.936 | 0.4926 | 0.4705 | 0.4471 | 0.4219 | 0.3944 | 0.3661

COC(C)(C)C + CC(C)CC(C)(C)C
Conditions | viscosity [mPa·s]
298.15 K, 101.33 kPa, x1 = 0.125 | 0.4633
298.15 K, 101.33 kPa, x1 = 0.2442 | 0.4465
298.15 K, 101.33 kPa, x1 = 0.3612 | 0.4301
298.15 K, 101.33 kPa, x1 = 0.462 | 0.4159
298.15 K, 101.33 kPa, x1 = 0.5638 | 0.4012
298.15 K, 101.33 kPa, x1 = 0.6579 | 0.3878
298.15 K, 101.33 kPa, x1 = 0.7533 | 0.3739
298.15 K, 101.33 kPa, x1 = 0.8375 | 0.3611
298.15 K, 101.33 kPa, x1 = 0.9182 | 0.3483
303.15 K, 101 kPa, x1 = 0.1862 | 0.436
303.15 K, 101 kPa, x1 = 0.3104 | 0.423
303.15 K, 101 kPa, x1 = 0.3813 | 0.416
303.15 K, 101 kPa, x1 = 0.4961 | 0.404
303.15 K, 101 kPa, x1 = 0.6203 | 0.39
303.15 K, 101 kPa, x1 = 0.6609 | 0.386
303.15 K, 101 kPa, x1 = 0.8925 | 0.36

C=CC(=O)OCC + c1ccccc1
viscosity [mPa·s], 101 kPa
Conditions | x2 = 0.1283 | x2 = 0.2137 | x2 = 0.3255 | x2 = 0.4115 | x2 = 0.5361 | x2 = 0.6109 | x2 = 0.7033 | x2 = 0.8074 | x2 = 0.9025
298.15 K | 0.531 | 0.533 | 0.537 | 0.541 | 0.55 | 0.558 | 0.568 | 0.579 | 0.591
303.15 K | 0.499 | 0.5 | 0.501 | 0.502 | 0.509 | 0.516 | 0.524 | 0.535 | 0.548
308.15 K | 0.461 | 0.46 | 0.461 | 0.462 | 0.466 | 0.472 | 0.481 | 0.495 | 0.508
313.15 K | 0.412 | 0.41 | 0.411 | 0.412 | 0.415 | 0.42 | 0.431 | 0.444 | 0.458

Clc1ccccc1 + CC(C)CO
viscosity [mPa·s], 101.33 kPa
Conditions | x1 = 0.101 | x1 = 0.2015 | x1 = 0.2966 | x1 = 0.4019 | x1 = 0.4952 | x1 = 0.5979 | x1 = 0.6965 | x1 = 0.8009 | x1 = 0.8977
298.15 K | 2.558 | 1.975 | 1.593 | 1.301 | 1.124 | 0.9772 | 0.8803 | 0.8094 | 0.7666
313.15 K | 1.663 | 1.336 | 1.128 | 0.9531 | 0.8497 | 0.7614 | 0.7035 | 0.6586 | 0.633

COC(C)(C)C + CCCO
Conditions | viscosity [mPa·s]
293.15 K, 101 kPa, x1 = 0.0599 | 1.835
298.15 K, 101 kPa, x1 = 0.0403 | 1.735
298.15 K, 101 kPa, x1 = 0.1495 | 1.275
298.15 K, 101.33 kPa, x1 = 0.0111 | 1.902
298.15 K, 101.33 kPa, x1 = 0.0293 | 1.804
298.15 K, 101.33 kPa, x1 = 0.0591 | 1.651
298.15 K, 101.33 kPa, x1 = 0.1133 | 1.416
298.15 K, 101.33 kPa, x1 = 0.1374 | 1.327
298.15 K, 101.33 kPa, x1 = 0.2501 | 0.998
298.15 K, 101.33 kPa, x1 = 0.3008 | 0.889
298.15 K, 101.33 kPa, x1 = 0.324 | 0.85
298.15 K, 101.33 kPa, x1 = 0.3581 | 0.792
298.15 K, 101.33 kPa, x1 = 0.3641 | 0.779
298.15 K, 101.33 kPa, x1 = 0.4004 | 0.729
298.15 K, 101.33 kPa, x1 = 0.4451 | 0.671
298.15 K, 101.33 kPa, x1 = 0.488 | 0.624
298.15 K, 101.33 kPa, x1 = 0.5535 | 0.562
298.15 K, 101.33 kPa, x1 = 0.6157 | 0.512
298.15 K, 101.33 kPa, x1 = 0.677 | 0.471
298.15 K, 101.33 kPa, x1 = 0.7585 | 0.427
298.15 K, 101.33 kPa, x1 = 0.8246 | 0.397
298.15 K, 101.33 kPa, x1 = 0.8813 | 0.378
298.15 K, 101.33 kPa, x1 = 0.9491 | 0.356
298.15 K, 101.33 kPa, x2 = 0.014 | 0.344

CCc1ccccc1 + CCO
viscosity [mPa·s], 101.33 kPa
Conditions | x2 = 0.4 | x2 = 0.6 | x2 = 0.8 | x2 = 0.9
303 K | 0.625 | 0.732 | 0.842 | 0.9
313 K | 0.547 | 0.627 | 0.706 | 0.752
323 K | 0.482 | 0.54 | 0.602 | 0.632

COC(C)(C)C + CC(C)O
101 kPa
Conditions | viscosity [mPa·s]
293.15 K, x1 = 0.0305 | 2.145
298.15 K, x1 = 0.0702 | 1.595
303.15 K, x1 = 0.0702 | 1.395
308.15 K, x1 = 0.0914 | 1.145

N#CCCCCC#N + CCOC(C)=O
303.15 K, 101.33 kPa
Conditions | viscosity [mPa·s]
x1 = 0.1075 | 0.5353
x1 = 0.3039 | 0.8893
x1 = 0.3934 | 1.116
x1 = 0.4973 | 1.451
x1 = 0.5975 | 1.861
x1 = 0.6944 | 2.366
x1 = 0.85 | 3.442

Clc1ccccc1 + COCCO
303.15 K, 101.33 kPa
Conditions | viscosity [mPa·s]
x2 = 0.1075 | 0.749
x2 = 0.2093 | 0.782
x2 = 0.3086 | 0.836
x2 = 0.4113 | 0.894
x2 = 0.4993 | 0.952
x2 = 0.6006 | 1.028
x2 = 0.7032 | 1.113
x2 = 0.8023 | 1.201
x2 = 0.9234 | 1.309

CCCCn1cc[n+](C)c1.F[P-](F)(F)(F)(F)F + CC#N
298.15 K, 101 kPa
Conditions | viscosity [mPa·s]
x2 = 0.1938 | 92.9
x2 = 0.5896 | 8.84

COC(C)(C)C + CCCCCO
Conditions | viscosity [mPa·s]
298.15 K, 101.33 kPa, x1 = 0.0301 | 3.179
298.15 K, 101.33 kPa, x1 = 0.0484 | 3.008
298.15 K, 101.33 kPa, x1 = 0.1133 | 2.461
298.15 K, 101.33 kPa, x1 = 0.1663 | 2.091
298.15 K, 101.33 kPa, x1 = 0.2824 | 1.56
298.15 K, 101.33 kPa, x1 = 0.3286 | 1.346
298.15 K, 101.33 kPa, x1 = 0.3767 | 1.174
298.15 K, 101.33 kPa, x1 = 0.4229 | 1.052
298.15 K, 101.33 kPa, x1 = 0.4688 | 0.939
298.15 K, 101.33 kPa, x1 = 0.5137 | 0.843
298.15 K, 101.33 kPa, x1 = 0.5239 | 0.843
298.15 K, 101.33 kPa, x1 = 0.5817 | 0.725
298.15 K, 101.33 kPa, x1 = 0.6305 | 0.653
298.15 K, 101.33 kPa, x1 = 0.6824 | 0.587
298.15 K, 101.33 kPa, x1 = 0.7282 | 0.538
298.15 K, 101.33 kPa, x1 = 0.7788 | 0.487
298.15 K, 101.33 kPa, x1 = 0.8339 | 0.44
298.15 K, 101.33 kPa, x1 = 0.8897 | 0.398
298.15 K, 101.33 kPa, x2 = 0.0178 | 0.349
303.15 K, 101 kPa, x1 = 0.0401 | 2.675
